Several values for one entry are separate records, joined by “and”; a condition that tells them apart may be missing. Identical values can stand only once.
Legend:
HSA [1] = target: T1, HSA (Homo sapiens, UniProt P02768); conditions: ref [41]; cited from earlier work
T1 construct: purchased Sigma-Aldrich

BSA = conditions: racemic, ref [39]; cited from earlier work
[2] = system: α1-acid glycoprotein (AGP); assay: Bound percentage by HPLC on AGP column, extrapolation to zero organic modifier; format: in vitro ADME, human; conditions: for Bound percentage (b%), average: average of IPA, EtOH, MeOH
Procedure: Chromatographic columns containing proteins can be used to determine the percentage of drug binding. A plot of the natural logarithm of the retention factors against the proportion of organic modifiers was created. […] The intercept of these linear equations can be used to calculate the bound percentage according to Equation (4) (see in Section 3.2).
Chromatographic measurements were carried out on two separate HPLC systems. The AGP binding study was performed on a Waters 2695e chromatographic system paired with a Waters 2996 PDA detector, controlled by Empower 3 FR5 (Waters Corp., Milford, MA, USA), while the HSA binding study was performed on an Agilent 1100 HPLC system, consisting of an inline degasser (G1322A), a quaternary pump (G1311A), an automatic injector (G1329A) paired with sample thermostat (G1330A), a column thermostat (G1316A), and a diode array detector (G1315A) with Agilent Chemstation B04.03-SP2 software (Agilent, Bronnwald, Germany). For the binding studies, two protein-based chiral stationary phases were utilized. The chromatographic binding study for AGP was conducted on a ChromTech Chiral-AGP column (150 mm × 4.0 mm; ChromTech Ltd., Congleton, UK), while the binding study for HSA was performed on a Daicel Chiralpak HSA column (50 mm × 4.0 mm; Daicel Corp., Osaka, Japan). The detection wavelength was 210 nm for all measurements. The stock solutions of PPIs were prepared at a concentration of 1 mg/mL in MeOH. Subsequent dilutions were prepared using water. The injected samples were mixed and diluted from the stock solutions. The final concentration for the eutomer was 0.2 mg/mL, and for the distomer, it was 0.1 mg/mL. A volume of 2 μL was injected. To mitigate the instability of PPIs in aqueous solutions, the samples were kept at a temperature of 4 °C. […] After 24 h, new samples were prepared for injection. Chromatographic parameters were calculated based on the following equations. The retention factor (k) was calculated as:(1) k=(tr−t0)/t0 where tr is the retention time of the investigated analyte, and t0 is the dead time, determined as the first peak appearance in the chromatogram. Resolution was calculated based on the following equation:(2) Rs=2(t2−t1)/(w1+w2) where t2 and t1 are the retention times of the second and first eluted enantiomers, respectively, while w is the peak width. The separation factor (α) was calculated as follows:(3) α=k2/k1 where k1 and k2 are the retention factors of the first- and second-eluting enantiomers, respectively. The k values were also used to calculate the protein-bound percentage (b%) using Equation (4):(4) b%=k/1+k×100

HSA [3] = target: T1, HSA; assay: UV titration (Benesi–Hildebrand) with HSA; format: binding; conditions: n = 3, 1 μM HSA, pH 7.4 phosphate buffer, 24 °C, 278 nm, read-out: logKHSA ± Stdev. (logarithm of stability constant) (converted)
Procedure: The UV-Vis absorption assay is a straightforward and relatively simple method to examine the interactions between small molecules and macromolecules. Changes in the structure of the protein caused by the interacting ligand can lead to alterations in the absorption spectrum. […] Fixed wavelength measurements were conducted at the absorption maxima of AGP and HSA. […] The change in the absorbance and wavelength maximum in the UV spectra during the titration refers to the complex formation between proteins and PPIs. The Benesi–Hildebrand method was used to determine the stability constants based on Equation (7).
The absorption spectra were recorded on a Jasco V-750 spectrophotometer (Jasco, Tokyo, Japan) at 24 °C using 1.0 cm path-length quartz cuvettes. Then, 1 μM HSA and AGP were dissolved in a sodium phosphate buffer solution (pH 7.4; 0.1 M) and their concentration was kept constant. The PPIs were dissolved in DMSO, and further diluted with the AGP or HSA solution. Next, 1000 μL of 1 μM HSA and AGP solutions was titrated with the PPI stock solution in 1 μL steps. The concentration of the PPIs was set to 4.00, 7.98, 11.96, 15.94, 19.90, 23.86, 27.81, and 31.75 μM. The binding constants were determined using the Benesi–Hildebrand equation:(7) A0/A−A0=εPPI/εAPPI−εPPI+εPPI/εAPPI−εPPI×1/K×[C] where A0 is the absorbance of the HSA or AGP at 278 nm, A is the absorbance of the formed complex also at 278 nm, εPPI is the extinction coefficient of the actual PPI, εAPPI is the extinction coefficient of the albumin or AGP and PPI complex, K is the binding coefficient, and [C] is the concentration of the investigated PPI. The plot of A0/A − A0 versus C^−1 has a slope of K^−1. All experiments were performed in triplicate.

[4] = extrapolation to zero percent EtOH
[5] = extrapolation to zero percent IPA
[6] = extrapolation to zero percent MeOH

T1 sequence (P02768 25-609): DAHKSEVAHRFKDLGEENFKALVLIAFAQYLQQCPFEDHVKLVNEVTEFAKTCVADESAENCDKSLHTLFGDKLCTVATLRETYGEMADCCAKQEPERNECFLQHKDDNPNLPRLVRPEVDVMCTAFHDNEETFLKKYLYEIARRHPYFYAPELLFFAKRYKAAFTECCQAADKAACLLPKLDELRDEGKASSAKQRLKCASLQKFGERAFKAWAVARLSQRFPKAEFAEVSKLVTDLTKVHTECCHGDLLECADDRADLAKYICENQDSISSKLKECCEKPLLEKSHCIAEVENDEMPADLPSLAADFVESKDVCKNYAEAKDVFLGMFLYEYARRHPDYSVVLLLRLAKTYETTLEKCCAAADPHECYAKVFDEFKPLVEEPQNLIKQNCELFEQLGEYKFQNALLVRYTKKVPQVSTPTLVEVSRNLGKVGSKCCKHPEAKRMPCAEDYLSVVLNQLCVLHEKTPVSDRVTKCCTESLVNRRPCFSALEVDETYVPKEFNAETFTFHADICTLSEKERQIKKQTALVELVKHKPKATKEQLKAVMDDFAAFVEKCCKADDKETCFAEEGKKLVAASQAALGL

Row | SMILES | logK (HSA [1]) | logK (BSA) | Bound percentage (b%), average [2] | Bound percentage (b%) [2, 4] [%] | Bound percentage (b%) [2, 5] [%] | Bound percentage (b%) [2, 6] [%] | Kd (HSA [3]) [µM]
1 | COc1ccc2[nH]c([S+]([O-])Cc3ncc(C)c(OC)c3C)nc2c1 (stereo not drawn) [Omeprazole, omeprazole] | 4.61 | 4.58 |  |  |  |  | 
2 | Cc1c(OCC(F)(F)F)ccnc1C[S@@+]([O-])c1nc2ccccc2[nH]1 [R-lansoprazole, dexlansoprazole] |  |  | 97.56% and 97.56 ± 1.39% | 97.60 | 98.93 | 96.16 | 60.3
3 | Cc1c(OCC(F)(F)F)ccnc1C[S@+]([O-])c1nc2ccccc2[nH]1 [S-lansoprazole] |  |  | 96.86% and 96.86 ± 1.79% | 96.92 | 98.62 | 95.04 | 21.9

Reference: PMC11477000, “Enantioselective Binding of Proton Pump Inhibitors to Alpha1-Acid Glycoprotein and Human Serum Albumin—A Chromatographic, Spectroscopic, and In Silico Study” (International Journal of Molecular Sciences, 2024)
